≈ marks a conversion by molar mass, not a printed value.
Key:
[1] = target: von Hippel-Lindau disease tumor suppressor/Androgen receptor (Homo sapiens, UniProt P10275+P40337); assay: PROTAC activity at VHL/AR-V7 (unknown origin) expressed in human 22Rv1 cells assessed as induction of AR-V7 degradation; format: cell-based
CWR22R [2] = assay: Antiproliferative activity against human 22Rv1 cells expressing […]; format: functional, cell-based
CWR22R [3] = assay: Antiproliferative activity against human 22Rv1 cells expressing […] assessed as inhibition of cell growth at 10 uM relative to control; format: functional
[4] = Cmax in CD1 mouse at 1 mg/kg, iv administered as single dose; format: ADME, organism-based; parameters: dose 1 mg/kg, route iv; details: in vivo
[5] = Terminal half life in CD1 mouse at 1 mg/kg, iv administered as single dose; format: ADME, organism-based; details: in vivo, read-out: beta t1/2 (converted)
[6] = AUC (0 to infinity) in CD1 mouse at 1 mg/kg, iv administered as single dose; format: ADME, organism-based; parameters: time infinity, dose 1 mg/kg, route iv; details: in vivo
[7] = Tmax in CD1 mouse at 30 mg/kg, po administered as single dose; format: ADME, organism-based; details: in vivo
[8] = Cmax in CD1 mouse at 30 mg/kg, po administered as single dose; format: ADME, organism-based; parameters: dose 30 mg/kg, route po; details: in vivo
[9] = Terminal half life in CD1 mouse at 30 mg/kg, po administered as single dose; format: ADME, organism-based; details: in vivo, read-out: beta t1/2 (converted)
[10] = AUC (0 to infinity) in CD1 mouse at 30 mg/kg, po administered as single dose; format: ADME, organism-based; parameters: time infinity, dose 30 mg/kg, route po; details: in vivo
[11] = Oral bioavailability in CD1 mouse at 30 mg/kg administered as single dose; format: ADME, organism-based; details: in vivo
[12] = Tmax in CD1 mouse at 100 mg/kg, po administered as single dose; format: ADME, organism-based; details: in vivo
[13] = Cmax in CD1 mouse at 100 mg/kg, po administered as single dose; format: ADME, organism-based; parameters: dose 100 mg/kg, route po; details: in vivo
[14] = Terminal half life in CD1 mouse at 100 mg/kg, po administered as single dose; format: ADME, organism-based; details: in vivo, read-out: beta t1/2 (converted)
[15] = AUC (0 to infinity) in CD1 mouse at 100 mg/kg, po administered as single dose; format: ADME, organism-based; parameters: time infinity, dose 100 mg/kg, route po; details: in vivo
[16] = Oral bioavailability in CD1 mouse at 100 mg/kg administered as single dose; format: ADME, organism-based; details: in vivo
[17] = Aqueous solubility of the compound at pH.7.4; format: physicochemical
[18] = Metabolic stability in mouse liver microsomes assessed as parent compound remaining measured at 1 hr; format: ADME, Microsome; details: read-out: Stability
[19] = tested on: von Hippel-Lindau disease tumor suppressor/Androgen receptor (Homo sapiens), P10275+P40337 [UNDEFINED MUTATION]; assay: PROTAC activity at VHL/AR-V7 (unknown origin) expressed in human 22Rv1 cells assessed as induction of AR-V7 degradation my measuring maximum efficacy relative to control; format: cell-based
CWR22R [20] = assay: Antiproliferative activity against human 22Rv1 cells expressing […] assessed as maximum efficacy relative to control; format: functional

von Hippel-Lindau disease tumor suppressor/Androgen receptor (Homo sapiens), P10275+P40337 [UNDEFINED MUTATION], sequence (P10275 whole entry, looked up, stated change not applied): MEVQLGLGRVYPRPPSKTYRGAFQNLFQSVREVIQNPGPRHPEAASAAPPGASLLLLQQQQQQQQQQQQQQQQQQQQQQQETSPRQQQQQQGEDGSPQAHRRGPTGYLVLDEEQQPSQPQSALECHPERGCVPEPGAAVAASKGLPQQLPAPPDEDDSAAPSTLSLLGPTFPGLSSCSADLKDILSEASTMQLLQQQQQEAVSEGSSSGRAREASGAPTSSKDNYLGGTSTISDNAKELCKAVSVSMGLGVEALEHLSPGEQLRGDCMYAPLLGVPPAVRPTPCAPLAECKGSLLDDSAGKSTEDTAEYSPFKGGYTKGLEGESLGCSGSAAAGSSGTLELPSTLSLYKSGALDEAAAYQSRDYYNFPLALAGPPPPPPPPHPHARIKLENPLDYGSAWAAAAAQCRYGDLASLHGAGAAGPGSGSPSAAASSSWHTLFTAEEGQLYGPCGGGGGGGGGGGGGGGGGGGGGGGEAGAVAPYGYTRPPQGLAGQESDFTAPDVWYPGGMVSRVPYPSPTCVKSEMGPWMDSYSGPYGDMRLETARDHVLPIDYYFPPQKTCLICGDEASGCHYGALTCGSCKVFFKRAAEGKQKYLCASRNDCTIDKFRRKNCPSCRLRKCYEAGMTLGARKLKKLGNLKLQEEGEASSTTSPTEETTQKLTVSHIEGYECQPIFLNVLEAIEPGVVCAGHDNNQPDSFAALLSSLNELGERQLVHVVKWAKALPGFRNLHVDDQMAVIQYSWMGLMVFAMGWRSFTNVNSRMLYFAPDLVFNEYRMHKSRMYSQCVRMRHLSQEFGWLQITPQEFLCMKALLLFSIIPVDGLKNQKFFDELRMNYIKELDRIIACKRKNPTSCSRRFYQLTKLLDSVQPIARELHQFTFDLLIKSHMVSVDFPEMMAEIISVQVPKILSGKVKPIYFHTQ
von Hippel-Lindau disease tumor suppressor/Androgen receptor (Homo sapiens), P10275+P40337 [UNDEFINED MUTATION], sequence (P40337 whole entry, looked up, stated change not applied): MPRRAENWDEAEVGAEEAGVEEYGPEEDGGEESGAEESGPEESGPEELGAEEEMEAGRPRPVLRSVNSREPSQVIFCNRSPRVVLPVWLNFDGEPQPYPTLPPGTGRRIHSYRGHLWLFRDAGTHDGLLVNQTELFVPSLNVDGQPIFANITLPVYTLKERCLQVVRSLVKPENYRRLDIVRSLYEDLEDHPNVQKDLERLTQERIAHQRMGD
von Hippel-Lindau disease tumor suppressor/Androgen receptor, sequence (P10275 whole entry, looked up, stated change not applied): as the sequence (P10275 whole entry, looked up, stated change not applied) above
von Hippel-Lindau disease tumor suppressor/Androgen receptor, sequence (P40337 whole entry, looked up, stated change not applied): as the sequence (P40337 whole entry, looked up, stated change not applied) above

DC50 [1]	SMILES	EC50 (CWR22R [2])	other results
> 10 µM	Cc1ncsc1-c1ccc([C@H](C)NC(=O)[C@@H]2C[C@@H](O)CN2C(=O)[C@@H](NC(=O)CCCCOc2ccc(-c3csc(N4CCOCC4C)n3)cc2)C(C)(C)C)cc1 (stereo partly specified)	> 10 µM	
	Cc1ncsc1-c1ccc(CNC(=O)[C@@H]2C[C@@H](O)CN2C(=O)[C@@H](NC(=O)C2(F)CC2)C(C)(C)C)c(OCCOc2ccc(-c3csc(N4CCOCC4)n3)cc2)c1	> 10 µM	
	Cc1ncsc1-c1ccc(CNC(=O)[C@@H]2C[C@@H](O)CN2C(=O)[C@@H](NC(=O)C2(F)CC2)C(C)(C)C)c(OCCCCCCOc2ccc(-c3csc(N4CCOCC4)n3)cc2)c1	> 10 µM	
> 10 µM	Cc1ncsc1-c1ccc([C@H](C)NC(=O)[C@@H]2C[C@@H](O)CN2C(=O)[C@@H](NC(=O)COc2ccc(-c3csc(N4CCOCC4)n3)cc2)C(C)(C)C)cc1		
	Cc1ncsc1-c1ccc([C@H](C)NC(=O)[C@@H]2C[C@@H](O)CN2C(=O)[C@@H](NC(=O)CCCCOc2ccc(-c3csc(N4CC(C)OC(C)C4)n3)cc2)C(C)(C)C)cc1 (stereo partly specified)	> 10 µM	
> 10 µM	Cc1ncsc1-c1ccc([C@H](C)NC(=O)[C@@H]2C[C@@H](O)CN2C(=O)[C@@H](NC(=O)CCCCOc2ccc(-c3csc(N4CCOC(C)(C)C4)n3)cc2)C(C)(C)C)cc1		inhibition at 10 µM (CWR22R [3]): 66%
	Cc1ncsc1-c1ccc([C@H](C)NC(=O)[C@@H]2C[C@@H](O)CN2C(=O)[C@@H](NC(=O)CCCCOc2ccc(-c3csc(N4CCC5(COC5)C4)n3)cc2)C(C)(C)C)cc1	> 10 µM	
	Cc1ncsc1-c1ccc(CNC(=O)[C@@H]2C[C@@H](O)CN2C(=O)[C@@H](NC(=O)C2(F)CC2)C(C)(C)C)c(OCCCOc2ccc(-c3csc(N4CCOCC4)n3)cc2)c1	> 10 µM	
	Cc1ncsc1-c1ccc([C@H](C)NC(=O)[C@@H]2C[C@@H](O)CN2C(=O)[C@@H](NC(=O)CCCCOc2ccc(-c3csc(N4CCOCC4)n3)cc2N)C(C)(C)C)cc1	> 10 µM	
	Cc1ncsc1-c1ccc([C@H](C)NC(=O)[C@@H]2C[C@@H](O)CN2C(=O)[C@@H](NC(=O)CCCCOc2ccc(-c3csc(N4CCOC(C)C4)n3)cc2)C(C)(C)C)cc1 (stereo partly specified)	> 10 µM	
> 10 µM	Cc1ncsc1-c1ccc([C@H](C)NC(=O)[C@@H]2C[C@@H](O)CN2C(=O)[C@@H](NC(=O)c2ccc(-c3csc(N4CCOCC4)n3)cc2)C(C)(C)C)cc1		
> 10 µM	c1ccc(-c2csc(N3CCOCC3)n2)cc1		
	Cc1ncsc1-c1ccc([C@H](C)NC(=O)[C@@H]2C[C@@H](O)CN2C(=O)[C@@H](NC(=O)CCCCOc2ccc(-c3csc(N4CCOCC4)n3)c(F)c2)C(C)(C)C)cc1	> 10 µM	
	Cc1ncsc1-c1ccc(CNC(=O)[C@@H]2C[C@@H](O)CN2C(=O)[C@@H](NC(=O)C2(F)CC2)C(C)(C)C)c(OCCCCOc2ccc(-c3csc(N4CCOCC4)n3)cc2)c1	> 10 µM	
0.32 µM	Cc1ncsc1-c1ccc([C@H](C)NC(=O)[C@@H]2C[C@@H](O)CN2C(=O)[C@@H](NC(=O)CCCCOc2ccc(-c3csc(N4CCOCC4)n3)cc2)C(C)(C)C)cc1	0.88 µM	Cmax [4]: 2900 ng/mL; half-life [5]: 54 min; AUC(0-inf) [6]: 1290 ng·h/mL; Tmax [7]: 45 min; Cmax [8]: 773 ng/mL; half-life [9]: 60 min; AUC(0-inf) [10]: 1980 ng·h/mL; bioavailability [11]: 5%; Tmax [12]: 79.8 min; Cmax [13]: 1810 ng/mL; half-life [14]: 42 min; AUC(0-inf) [15]: 5950 ng·h/mL; bioavailability [16]: 4.6%; solubility [17]: 3.5 µM (≈ 2.76 µg/mL); remaining at 1 h [18]: 6%; Emax [19]: 67%; Emax (CWR22R [20]): 94%
	Cc1ncsc1-c1ccc([C@H](C)NC(=O)[C@@H]2C[C@@H](O)CN2C(=O)[C@@H](NC(=O)CCCCOc2ccc(-c3csc(N4CCOCC4)n3)cc2[N+](=O)[O-])C(C)(C)C)cc1	> 10 µM	
	Cc1ncsc1-c1ccc([C@H](C)NC(=O)[C@@H]2C[C@@H](O)CN2C(=O)[C@@H](NC(=O)CCCCOc2ccc(-c3csc(N4CC5(CCOCC5)C4)n3)cc2)C(C)(C)C)cc1	> 10 µM	
	CCC1COCCN1c1nc(-c2ccc(OCCCCC(=O)N[C@H](C(=O)N3C[C@H](O)C[C@H]3C(=O)N[C@@H](C)c3ccc(-c4scnc4C)cc3)C(C)(C)C)cc2)cs1 (stereo partly specified)	> 10 µM	
	Cc1ncsc1-c1ccc([C@H](C)NC(=O)[C@@H]2C[C@@H](O)CN2C(=O)[C@@H](NC(=O)CCCCOc2ccc(-c3csc(N4CC(C)OCC4C)n3)cc2)C(C)(C)C)cc1 (stereo partly specified)	> 10 µM	
0.35 µM	Cc1ncsc1-c1ccc([C@H](C)NC(=O)[C@@H]2C[C@@H](O)CN2C(=O)[C@@H](NC(=O)CCCOc2ccc(-c3csc(N4CCOCC4)n3)cc2)C(C)(C)C)cc1	1.36 µM	solubility [17]: < 2 µM; remaining at 1 h [18]: 5%; Emax [19]: 53%; Emax (CWR22R [20]): 90%
	Cc1ncsc1-c1ccc([C@H](C)NC(=O)[C@@H]2C[C@@H](O)CN2C(=O)[C@@H](NC(=O)CCCCOc2ccc(-c3csc(N4CCOCC4)n3)cc2F)C(C)(C)C)cc1	> 10 µM	
1 µM	Cc1ncsc1-c1ccc([C@H](C)NC(=O)[C@@H]2C[C@@H](O)CN2C(=O)[C@@H](NC(=O)CCCCCOc2ccc(-c3csc(N4CCOCC4)n3)cc2)C(C)(C)C)cc1		Emax [19]: 60%
	Cc1ncsc1-c1ccc(CNC(=O)[C@@H]2C[C@@H](O)CN2C(=O)[C@@H](NC(=O)C2(F)CC2)C(C)(C)C)c(OCCCCCCCCOc2ccc(-c3csc(N4CCOCC4)n3)cc2)c1	> 10 µM	
> 10 µM	Cc1ncsc1-c1ccc([C@H](C)NC(=O)[C@@H]2C[C@@H](O)CN2C(=O)[C@@H](NC(=O)CCOc2ccc(-c3csc(N4CCOCC4)n3)cc2)C(C)(C)C)cc1		
> 10 µM	COc1c(-c2csc(N3CCOCC3)n2)ccc(OCCCCC(=O)N[C@H](C(=O)N2C[C@H](O)C[C@H]2C(=O)N[C@@H](C)c2ccc(-c3scnc3C)cc2)C(C)(C)C)c1F	> 10 µM	
	Cc1cc(OCCCCC(=O)N[C@H](C(=O)N2C[C@H](O)C[C@H]2C(=O)N[C@@H](C)c2ccc(-c3scnc3C)cc2)C(C)(C)C)ccc1-c1csc(N2CCOCC2)n1	> 10 µM	
> 10 µM	Cc1ncsc1-c1ccc([C@H](C)NC(=O)[C@@H]2C[C@@H](O)CN2C(=O)[C@@H](NC(=O)CCCCOc2ccc(-c3csc(N4CC5CCC(C4)O5)n3)cc2)C(C)(C)C)cc1	> 10 µM	
	Cc1ncsc1-c1ccc([C@H](C)NC(=O)[C@@H]2C[C@@H](O)CN2C(=O)[C@@H](NC(=O)CCCCOc2ccc(-c3csc(N4CC5(COC5)C4)n3)cc2)C(C)(C)C)cc1	> 10 µM	

Reference: ChEMBL document CHEMBL5131402, “Design, synthesis, and biological evaluation of phenyl thiazole-based AR-V7 degraders” (Bioorg Med Chem Lett, 2022)
